# Laboratory results from patent US20170204102A1, “AGRICULTURAL AGENT CONTAINING 2,5-DIKETOPIPERAZINE DERIVATIVE AS ACTIVE INGREDIENT” (NAPRO BIOTEC INC., priority 2010, published 2017).
# Like-named read-outs stand apart in the source and are kept apart here.
# Columns and labels:
# [1] = tested on: Colletotrichum acutatum; test: Inhibition of anthracnose in red pepper fruit after soil drench; conditions: for Appearance of anthracnose: control 50
# [2] = tested on: cucumber leaf; test: Promotion of growth of cucumber leaf; conditions: for Width of leaf: relative values with respect to the control group (89.9 mm) = 100.0; for response vs control in vivo at 1 ppm / response vs control in vivo at 10 ppm / response vs control in vivo at 100 ppm: Cucumis sativus, read-out: Width of leaf
# Procedure: Plant leaves were tested with test compounds by drenching. […] 3-5 days later, the width of the leaves was measured again to compare the growth of the leaves relative to the control group.
# [3] = tested on: Pectobacterium carotovorum SCC1; test: Inhibition of soft rot lesion in tobacco leaf; format: in vivo
# [4] = tested on: Pectobacterium carotovorum SCC1; test: Inhibition of soft rot lesion in cucumber leaf; format: in vivo
# [5] = tested on: Colletotrichum orbiculare; format: in vivo; conditions: cucumber; for Number of anthractic lesions in first leaf: control 12.5; for Number of anthractic lesions in second leaf: control 96.8
# [6] = 100 ppm, Table 5, control 73.75
molecule,measurement,setting,value
"O=C1C2CCCN2C(=O)C2CCCN12 (stereo not drawn) [Compound No. 31, octahydropyrrolo[1,2-a:1′,2′-d]pyrazin-5,10-dione]",Appearance of anthracnose,[1]; 1 ppm,25%
same,Appearance of anthracnose,[1]; 10 ppm,25%
same,Appearance of anthracnose,[1]; 100 ppm,0%
same,Width of leaf,[2]; 1.0 ppm,104.2
same,Width of leaf,[2]; 10 ppm,103.2
same,Width of leaf,[2]; 100 ppm,102.8
same,Area of lesion,"[3]; 1 ppm, Table 4, control 100",47.5%
same,Area of lesion,"[3]; 10 ppm, Table 4, control 100",60%
same,Area of lesion,"[3]; 100 ppm, Table 4, control 100",17.5%
same,Area of lesion,"[4]; 1 ppm, Table 7, control 100",95%
same,Area of lesion,"[4]; 10 ppm, Table 7, control 100",78%
same,Area of lesion,"[4]; 100 ppm, Table 7, control 100",80%
NC(=O)CC[C@H]1NC(=O)[C@@H]2CCCN2C1=O [Compound No. 59],Area of lesion,"[3]; 1 ppm, Table 5, control 73.75",12.5%
same,Area of lesion,"[3]; 10 ppm, Table 5, control 73.75",32.5%
same,Area of lesion,[3]; [6],47.5%
same,Area of lesion,"[4]; 1 ppm, Table 8, control 100",30%
same,Area of lesion,"[4]; 10 ppm, Table 8, control 100",32.5%
same,Area of lesion,"[4]; 100 ppm, Table 8, control 100",80%
O=C1N[C@H](Cc2ccccc2)C(=O)N2CCC[C@H]12 [Compound No. 63],Area of lesion,"[3]; 1 ppm, Table 5, control 73.75",15%
same,Area of lesion,"[3]; 10 ppm, Table 5, control 73.75",22.5%
same,Area of lesion,[3]; [6],65%
same,Area of lesion,"[4]; 1 ppm, Table 8, control 100",82.5%
same,Area of lesion,"[4]; 10 ppm, Table 8, control 100",42.5%
same,Area of lesion,"[4]; 100 ppm, Table 8, control 100",50%
CC(O)C1NC(=O)C2CCCN2C1=O (stereo not drawn) [Compound No. 66],Area of lesion,"[3]; 1 ppm, Table 5, control 73.75",35%
same,Area of lesion,"[3]; 10 ppm, Table 5, control 73.75",37.5%
same,Area of lesion,[3]; [6],37.5%
CCC(C)C1NC(=O)C2CCCN2C1=O (stereo not drawn) [Compound No. 60],Area of lesion,"[3]; 1 ppm, Table 5, control 73.75",33.7%
same,Area of lesion,"[3]; 10 ppm, Table 5, control 73.75",25%
same,Area of lesion,[3]; [6],7.5%
same,Area of lesion,"[4]; 1 ppm, Table 8, control 100",50%
same,Area of lesion,"[4]; 10 ppm, Table 8, control 100",60%
same,Area of lesion,"[4]; 100 ppm, Table 8, control 100",27.5%
O=C1N[C@H](Cc2ccc(O)cc2)C(=O)N2CCC[C@H]12 [Compound No. 64],Area of lesion,"[3]; 1 ppm, Table 5, control 73.75",55%
same,Area of lesion,"[3]; 10 ppm, Table 5, control 73.75",37.5%
same,Area of lesion,[3]; [6],60%
same,Area of lesion,"[4]; 1 ppm, Table 8, control 100",50%
same,Area of lesion,"[4]; 10 ppm, Table 8, control 100",55%
same,Area of lesion,"[4]; 100 ppm, Table 8, control 100",65%
CCC(C)C1NC(=O)C2CCCN2C1=O (stereo not drawn) [Compound No. 67],Area of lesion,"[3]; 1 ppm, Table 5, control 73.75",25%
same,Area of lesion,"[3]; 10 ppm, Table 5, control 73.75",35%
same,Area of lesion,[3]; [6],40%
CC(O)C1NC(=O)C2CCCN2C1=O (stereo not drawn) [Compound No. 56],Area of lesion,"[3]; 1 ppm, Table 5, control 73.75",7.5%
same,Area of lesion,"[3]; 10 ppm, Table 5, control 73.75",10%
same,Area of lesion,[3]; [6],10%
same,Area of lesion,"[4]; 1 ppm, Table 8, control 100",5%
same,Area of lesion,"[4]; 10 ppm, Table 8, control 100",80%
same,Area of lesion,"[4]; 100 ppm, Table 8, control 100",70%
"CC(C)CC1NC(=O)C(CO)NC1=O (stereo not drawn) [Compound No. 1, 3-hydroxymethyl-6-(2-methylpropyl)-2,5-diketopiperazine]",Area of lesion,"[3]; 1 ppm, Table 3, control 87.5",10%
same,Area of lesion,"[3]; 10 ppm, Table 3, control 87.5",32.5%
same,Area of lesion,"[3]; 100 ppm, Table 3, control 87.5",50%
same,Area of lesion,"[4]; 1 ppm, Table 6, control 100",95%
same,Area of lesion,"[4]; 10 ppm, Table 6, control 100",77.5%
same,Area of lesion,"[4]; 100 ppm, Table 6, control 100",50%
"O=C1CNC(=O)C(Cc2c[nH]c3ccccc23)N1 (stereo not drawn) [Compound No. 5, 3-(indol-3-ylmethyl)-2,5-diketopiperazine]",melting point,,280 to 284 °C (dec.)
same,Area of lesion,"[3]; 1 ppm, Table 3, control 87.5",2.5%
same,Area of lesion,"[3]; 10 ppm, Table 3, control 87.5",5%
same,Area of lesion,"[3]; 100 ppm, Table 3, control 87.5",40%
"CC1NC(=O)C(Cc2ccc(O)cc2)NC1=O (stereo not drawn) [Compound No. 10, 3-methyl-6-(4-hydroxybenzyl)-2,5-diketopiperazine]",melting point,,276 to 280 °C (dec.)
"CC(O)C1NC(=O)C2CCCN2C1=O (stereo not drawn) [Compound No. 33, 3-(1-hydroxyethyl)hexahydropyrrolo[1,2-a]pyrazin-1,4-dione]",response vs control in vivo at 1 ppm,[2],109%
same,response vs control in vivo at 10 ppm,[2],117%
same,response vs control in vivo at 100 ppm,[2],110%
"NC(=O)CC1NC(=O)C2CCCN2C1=O (stereo not drawn) [Compound No. 68, 3-carbamoylmethylhexahydropyrrolo[1,2-a]pyrazin-1,4-dione]",Area of lesion,"[3]; 1 ppm, Table 5, control 73.75",10%
same,Area of lesion,"[3]; 10 ppm, Table 5, control 73.75",7.5%
same,Area of lesion,[3]; [6],30%
"CCCC1NC(=O)C(C)NC1=O (stereo not drawn) [Compound No. 9, 3-methyl-6-(2-methylethyl)-2,5-diketopiperazine]",melting point,,220 to 222 °C (dec.)
CC(C)C[C@H]1NC(=O)[C@H]2CCCN2C1=O [Compound No. 61],Area of lesion,"[3]; 1 ppm, Table 5, control 73.75",10%
same,Area of lesion,"[3]; 10 ppm, Table 5, control 73.75",10%
same,Area of lesion,[3]; [6],17.5%
same,Area of lesion,"[4]; 1 ppm, Table 8, control 100",5%
same,Area of lesion,"[4]; 10 ppm, Table 8, control 100",70%
same,Area of lesion,"[4]; 100 ppm, Table 8, control 100",75%
"O=C1NC(Cc2ccccc2)C(=O)N2CCCC12 (stereo not drawn) [Compound No. 24, 3-benzylhexahydropyrrolo[1,2-a]pyrazin-1,4-dione]",response vs control in vivo at 1 ppm,[2],98.2%
same,response vs control in vivo at 10 ppm,[2],104%
same,response vs control in vivo at 100 ppm,[2],102%
"CC(C)C1NC(=O)CNC1=O (stereo not drawn) [Compound No. 4, 3-isopropyl-2,5-diketopiperazine]",Area of lesion,"[3]; 1 ppm, Table 3, control 87.5",17.5%
same,Area of lesion,"[3]; 10 ppm, Table 3, control 87.5",52.5%
same,Area of lesion,"[3]; 100 ppm, Table 3, control 87.5",52.5%
same,Area of lesion,"[4]; 1 ppm, Table 6, control 100",37.5%
same,Area of lesion,"[4]; 10 ppm, Table 6, control 100",45%
same,Area of lesion,"[4]; 100 ppm, Table 6, control 100",87.5%
"CC(C)CC1NC(=O)C(C(C)O)NC1=O (stereo not drawn) [Compound No. 3, 3-(1-hydroxyethyl)-6-(2-methylpropyl)-2,5-diketopiperazine]",Area of lesion,"[3]; 1 ppm, Table 3, control 87.5",20%
same,Area of lesion,"[3]; 10 ppm, Table 3, control 87.5",10%
same,Area of lesion,"[3]; 100 ppm, Table 3, control 87.5",0%
same,Area of lesion,"[4]; 1 ppm, Table 6, control 100",45%
same,Area of lesion,"[4]; 10 ppm, Table 6, control 100",45%
same,Area of lesion,"[4]; 100 ppm, Table 6, control 100",42.5%
"CC(C)CC1NC(=O)C2CCCN2C1=O (stereo not drawn) [Compound No. 27, 3-(2-methylpropyl)hexahydropyrrolo[1,2-a]pyrazin-1,4-dione]",response vs control in vivo at 1 ppm,[2],111%
same,response vs control in vivo at 10 ppm,[2],135%
same,response vs control in vivo at 100 ppm,[2],129%
"O=C1NC(CO)C(=O)N2CCCC12 (stereo not drawn) [Compound No. 32, 3-hydroxymethylhexahydropyrrolo[1,2-a]pyrazin-1,4-dione]",response vs control in vivo at 1 ppm,[2],98.7%
same,response vs control in vivo at 10 ppm,[2],124%
same,response vs control in vivo at 100 ppm,[2],112%
CSCC[C@H]1NC(=O)[C@@H]2CCCN2C1=O [Compound No. 57],Area of lesion,"[3]; 1 ppm, Table 5, control 73.75",10%
same,Area of lesion,"[3]; 10 ppm, Table 5, control 73.75",10%
same,Area of lesion,[3]; [6],12.5%
same,Area of lesion,"[4]; 1 ppm, Table 8, control 100",70%
same,Area of lesion,"[4]; 10 ppm, Table 8, control 100",72.5%
same,Area of lesion,"[4]; 100 ppm, Table 8, control 100",60%
"3-(indol-3-ylmethyl)hexahydropyrrolo[1,2-a]pyrazin-1,4-dione [Compound No. 30]",Appearance of anthracnose,[1]; 1 ppm,0%
same,Appearance of anthracnose,[1]; 10 ppm,0%
same,Appearance of anthracnose,[1]; 100 ppm,0%
same,Appearance of anthracnose / anthractic lesion (in words),"[1]; Table 10, FIG. 9",hardly observed
same,Width of leaf,[2]; 1.0 ppm,101.6
same,Width of leaf,[2]; 10 ppm,123.5
same,Width of leaf,[2]; 100 ppm,119.5
same,Number of anthractic lesions in first leaf,[5]; 0.1 ppm,2.5
same,Number of anthractic lesions in second leaf,[5]; 0.1 ppm,66.8
same,Number of anthractic lesions in first leaf,[5]; 1 ppm,3.0
same,Number of anthractic lesions in second leaf,[5]; 1 ppm,39.0
same,Number of anthractic lesions in first leaf,[5]; 10 ppm,7.0
same,Number of anthractic lesions in second leaf,[5]; 10 ppm,35.3
same,Number of anthractic lesions in first leaf,[5]; 100 ppm,7.8
same,Number of anthractic lesions in second leaf,[5]; 100 ppm,55.3
same,Area of lesion,"[3]; 1 ppm, Table 4, control 100",2.5%
same,Area of lesion,"[3]; 10 ppm, Table 4, control 100",7.5%
same,Area of lesion,"[3]; 100 ppm, Table 4, control 100",2.5%
same,Area of lesion,"[4]; 1 ppm, Table 7, control 100",88%
same,Area of lesion,"[4]; 10 ppm, Table 7, control 100",75%
same,Area of lesion,"[4]; 100 ppm, Table 7, control 100",70%
O=C1N[C@H](Cc2ccccc2)C(=O)N2CCC[C@@H]12 [Compound No. 58],Area of lesion,"[3]; 1 ppm, Table 5, control 73.75",35%
same,Area of lesion,"[3]; 10 ppm, Table 5, control 73.75",25%
same,Area of lesion,[3]; [6],7.5%
same,Area of lesion,"[4]; 1 ppm, Table 8, control 100",75%
same,Area of lesion,"[4]; 10 ppm, Table 8, control 100",57.5%
same,Area of lesion,"[4]; 100 ppm, Table 8, control 100",80%
"O=C1NC(Cc2ccc(O)cc2)C(=O)N2CCCC12 (stereo not drawn) [Compound No. 23, 3-(4-hydroxybenzyl)hexahydropyrrolo[1,2-a]pyrazin-1,4-dione]",response vs control in vivo at 1 ppm,[2],97.8%
same,response vs control in vivo at 10 ppm,[2],114%
same,response vs control in vivo at 100 ppm,[2],110%
CSCC[C@H]1NC(=O)[C@H]2CCCN2C1=O [Compound No. 65],Area of lesion,"[3]; 1 ppm, Table 5, control 73.75",60%
same,Area of lesion,"[3]; 10 ppm, Table 5, control 73.75",57.5%
same,Area of lesion,[3]; [6],52.5%
